pKi: −log10 of the molar value.
How the values were obtained:
Type in all cases: biochemical
Human cathepsin B = Human cathepsin B (Homo sapiens, UniProt P07858); test: Cathepsin B Assay; details: apparent inhibition constant; substrate Z-FR-AMC, pH 6, 30 min incubation at room temperature; read-out: CATB (Ki)
Description: (§1) Solutions of test compounds in varying concentrations were prepared in 10 µL of dimethyl sulfoxide (DMSO) and then diluted into assay buffer (40 µL, comprising: N,N-bis(2-hydroxyethyl)-2-aminoethanesulfonic acid (BES), 50 mM (pH 6); polyoxyethylenesorbitan monolaurate, 0.05%; and dithiothreitol (DTT), 2.5 mM). Human cathepsin B (0.025 pMoles in 25 µL of assay buffer) was added to the dilutions. The assay solutions were mixed for 5-10 seconds on a shaker plate, covered and incubated for 30 min at room temperature. Z-FR-AMC (20 nMoles in 25 µL of assay buffer) was added to the assay solutions and hydrolysis was followed spectrophotometrically at (λ 460 nm) for 5 min. Apparent inhibition constants (Ki) were calculated from the enzyme progress curves using standard mathematical models.

CATV = CATV (Homo sapiens, UniProt O60911); test: Cathepsin V inhibition (CATV Ki, no method described)
Human cathepsin L = Human cathepsin L (Homo sapiens, UniProt P07711); test: Cathepsin L Assay; details: apparent inhibition constant; substrate Z-Phe-Arg-AMC, pH 5.5, 30 min incubation at room temperature; read-out: CATL (Ki)
Description: as §1, with “MES,” for “N,N-bis(2-hydroxyethyl)-2-aminoethanesulfonic acid (BES),”, “5.5); EDTA, 2.5 mM;” for “6); polyoxyethylenesorbitan monolaurate, 0.05%;”, “DTT,” for “dithiothreitol (DTT),”, “L (0.05” for “B (0.025”, “Z-Phe-Arg-AMC (1” for “Z-FR-AMC (20”

Human cathepsin F = biological target: T1, Human cathepsin F (Homo sapiens, UniProt Q9UBX1); test: Cathepsin F Assay; details: apparent inhibition constant; substrate Z-Phe-Arg-AMC, pH 6.5, 30 min incubation at room temperature; read-out: CATF (Ki)
T1 sequence (Q9UBX1 271-484): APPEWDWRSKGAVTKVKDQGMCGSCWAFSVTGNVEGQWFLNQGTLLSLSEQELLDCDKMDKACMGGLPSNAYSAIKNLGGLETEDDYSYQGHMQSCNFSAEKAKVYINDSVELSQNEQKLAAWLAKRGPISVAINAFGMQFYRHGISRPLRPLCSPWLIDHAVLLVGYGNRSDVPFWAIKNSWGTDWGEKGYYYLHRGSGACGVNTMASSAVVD
Description: (§2) Solutions of test compounds in varying concentrations were prepared in 10 µL of dimethyl sulfoxide (DMSO) and then diluted into assay buffer (40 µL, comprising: MES, 50 mM (pH 6.5); EDTA, 2.5 mM; and NaCl, 100 mM); DTT, 2.5 mM; and BSA, 0.01 %. Human cathepsin F (0.1 pMoles in 25 µL of assay buffer) was added to the dilutions. The assay solutions were mixed for 5-10 seconds on a shaker plate, covered and incubated for 30 min at room temperature. Z-Phe-Arg-AMC (2 nMoles in 25 µL of assay buffer containing 10% DMSO) was added to the assay solutions and hydrolysis was followed spectrophotometrically (at λ 460 nm) for 5 min. Apparent inhibition constants (Ki) were calculated from the enzyme progress curves using standard mathematical models.

Human cathepsin S = Human cathepsin S (Homo sapiens, UniProt P25774); test: Cathepsin S Assay; details: apparent inhibition constant; substrate Z-Val-Val-Arg-AMC, pH 6.5, 30 min incubation at room temperature; read-out: CATS (Ki)
Description: as §2, with “β-mercaptoethanol,” for “DTT,”, “[…].” for “0.01 %.”, “S (0.05” for “F (0.1”, “Z-Val-Val-Arg-AMC (4” for “Z-Phe-Arg-AMC (2”, “λ,” for “λ”

Chain of Human cathepsin L (P07711 114-333): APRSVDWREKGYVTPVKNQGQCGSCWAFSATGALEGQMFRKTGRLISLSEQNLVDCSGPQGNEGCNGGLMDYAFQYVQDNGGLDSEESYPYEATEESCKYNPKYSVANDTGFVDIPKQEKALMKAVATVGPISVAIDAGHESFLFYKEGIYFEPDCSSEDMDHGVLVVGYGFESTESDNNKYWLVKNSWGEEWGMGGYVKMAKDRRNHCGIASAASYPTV
Chain of Human cathepsin S (P25774 115-331): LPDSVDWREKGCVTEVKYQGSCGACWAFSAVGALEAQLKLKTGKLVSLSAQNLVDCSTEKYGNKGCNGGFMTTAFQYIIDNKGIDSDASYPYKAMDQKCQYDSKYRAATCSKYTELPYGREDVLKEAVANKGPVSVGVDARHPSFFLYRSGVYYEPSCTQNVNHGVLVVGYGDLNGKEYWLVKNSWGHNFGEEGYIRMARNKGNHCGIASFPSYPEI
Chain of CATV (O60911 114-334): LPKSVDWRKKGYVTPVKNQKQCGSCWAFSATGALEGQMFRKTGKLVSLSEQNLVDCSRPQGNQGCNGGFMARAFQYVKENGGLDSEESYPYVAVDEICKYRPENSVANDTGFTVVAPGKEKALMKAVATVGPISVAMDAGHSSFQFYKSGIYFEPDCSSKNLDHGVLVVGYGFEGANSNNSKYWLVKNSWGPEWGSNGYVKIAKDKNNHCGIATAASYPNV

| pKi (Human cathepsin B) | pKi (CATV) | pKi (Human cathepsin L) | pKi (Human cathepsin F) | pKi (Human cathepsin S) | Structure (SMILES) |
| --- | --- | --- | --- | --- | --- |
| < 6.00 | > 6.00 | < 6.00 | < 6.00 | > 7.00 | N#CC1(NC(=O)[C@H](CS(=O)(=O)Cc2cccnc2)NCC(F)(F)Oc2ccc(F)cc2)CC1 [A, (R)-N-(1-cyanocyclopropyl)-2-(2,2-difluoro-2-(4-fluorophenoxy)ethylamino)-3-(pyridin-3-ylmethylsulfonyl)propanamide] |
| > 7.00 | > 7.00 | > 7.00 | > 6.00 | > 7.00 | CC[C@H](NC(=O)[C@H](CS(=O)(=O)Cc1cccnc1)NCC(F)(F)Oc1ccc(F)cc1)C(=O)C(=O)NC1CC1 [B, (S)-N-cyclopropyl-3-((R)-2-(2,2-difluoro-2-(4-fluorophenoxy)ethylamino)-3-(pyridin-3-ylmethylsulfonyl)propanamido)-2-oxopentanamide] |
| > 7.00 | < 6.00 | < 6.00 | < 6.00 | > 6.00 | CC#C[C@H](N[C@@H](CSCC1CC1)C(=O)NC1(C#N)CC1)C(F)(F)Oc1ccc(SC)cc1 [Compound C, (R)-N-(1-cyanocyclopropyl)-3-(cyclopropylmethylthio)-2-((S)-1,1-difluoro-1-(4-(methylthio)phenoxy)pent-3-yn-2-ylamino)propanamide] |
| < 6.00 | > 6.00 | < 6.00 | < 6.00 | > 7.00 | CC#C[C@H](N[C@@H](CS(=O)(=O)CC1CC1)C(=O)NC1(C#N)CC1)C(F)(F)Oc1ccc(S(C)(=O)=O)cc1 [D, (R)-N-(1-cyanocyclopropyl)-3-(cyclopropylmethylsulfonyl)-2-((S)-1,1-difluoro-1-(4-(methylsulfonyl)phenoxy)pent-3-yn-2-ylamino)propanamide] |
| < 6.00 | > 6.00 | < 6.00 | < 6.00 | > 7.00 | CC#C[C@H](N[C@@H](CSCc1ccccn1)C(=O)NC1(C#N)CC1)C(F)(F)Oc1ccc(SC)cc1 [E, (R)-N-(1-cyanocyclopropyl)-2-((S)-1,1-difluoro-1-(4-(methylthio)phenoxy)pent-3-yn-2-ylamino)-3-(pyridin-2-ylmethylthio)propanamide] |
| < 6.00 | > 7.00 | < 6.00 | < 6.00 | > 7.00 | CC#C[C@H](N[C@@H](CS(=O)(=O)Cc1ccccn1)C(=O)NC1(C#N)CC1)C(F)(F)Oc1ccc(S(C)(=O)=O)cc1 [F, (R)-N-(1-cyanocyclopropyl)-2-((S)-1,1-difluoro-1-(4-(methylsulfonyl)phenoxy)pent-3-yn-2-ylamino)-3-(pyridin-2-ylmethylsulfonyl)propanamide] |
| > 7.00 | > 7.00 | > 6.00 | > 6.00 | > 7.00 | CC[C@H](NC(=O)[C@H](CS(=O)(=O)CC1CC1)NCC(F)(F)Oc1ccc(F)cc1)C(=O)C(=O)NC1CC1 [J, (S)-N-cyclopropyl-3-((R)-3-(cyclopropylmethylsulfonyl)-2-(2,2-difluoro-2-(4-fluorophenoxy)ethylamino)propanamido)-2-oxopentanamide] |
| > 6.00 | > 7.00 | > 7.00 |  | > 7.00 | CC[C@H](NC(=O)[C@H](CC(F)(F)CC1CC1)NCC(F)(F)Oc1ccc(F)cc1)C(=O)C(=O)NC1CC1 [K, (S)-5-cyclopropyl-N-((S)-1-(cyclopropylamino)-1,2-dioxopentan-3-yl)-2-(2,2-difluoro-2-(4-fluorophenoxy)ethylamino)-4,4-difluoropentanamide] |
| < 6.00 | < 6.00 | < 6.00 |  | > 6.00 | N#CC1(NC(=O)[C@H](CC(F)(F)CC2CC2)NCC(F)(F)Oc2ccc(F)cc2)CC1 [L, (S)-N-(1-cyanocyclopropyl)-5-cyclopropyl-2-(2,2-difluoro-2-(4-fluorophenoxy)ethylamino)-4,4-difluoropentanamide] |

| Structure (SMILES) | pKi (Human cathepsin B) | pKi (CATV) | pKi (Human cathepsin L) | pKi (Human cathepsin F) | pKi (Human cathepsin S) |
| --- | --- | --- | --- | --- | --- |
| CC#C[C@H](N[C@@H](CSCc1cccnc1)C(=O)NC1(C#N)CC1)C(F)(F)Oc1ccc(SC)cc1 [G] | < 6.00 | > 6.00 | < 6.00 | < 6.00 | > 7.00 |
| CC#C[C@H](N[C@@H](CS(=O)(=O)Cc1cccnc1)C(=O)NC1(C#N)CC1)C(F)(F)Oc1ccc(S(C)(=O)=O)cc1 [H, (R)-N-(1-cyanocyclopropyl)-3-((S)-1,1 1-difluoro-1-(4-(methylsulfonyl)phenoxy)pent-3-yn-2-ylamino)-2-((pyridin-3-ylmethylsulfonyl)methyl)propanamide] | < 6.00 | > 7.00 | < 6.00 | < 6.00 | > 7.00 |
| CC#C[C@H](N[C@@H](CS(=O)(=O)Cc1ccc[n+]([O-])c1)C(=O)NC1(C#N)CC1)C(F)(F)Oc1ccc(S(C)(=O)=O)cc1 [I] | < 6.00 | > 7.00 | < 6.00 | < 6.00 | > 7.00 |

Reference: patent EP2361243B9 (Virobay, Inc., priority 2008, dated 2010)
